Test results as given in PubChem BioAssay AID1963959 (Molecular Pharmacology Branch, DTP, NCI, 2024).
Values joined by “and” are separate entries in the source; they are usually repeats but may differ in a detail not shown here. Identical values can stand only once.

Tested on: T-47D spheroids with HUVEC/MSC, viability
Assay: Anticancer human tumor T-47D cell line growth inhibition [PI3K];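 also: spheroids exposed to agents for seven days before reading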;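 as to viability, T/C: percent of DMSO vehicle control luminescence so 100% = untreated growth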
Settings: for viability, T/C: stronger effect = lower value
Procedure, shortened: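 Viability of mixed-cell spheroids was determined after exposure to pairwise combinations, one partner being inavolisib, alpelisib, duvelisib or copanlisib. Highest tested concentration matched clinical Cmax where known and 10 microM where not, descending in half-log steps.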

For `CC(=O)c1c(C)c2cnc(Nc3ccc(N4CCNCC4)cn3)nc2n(C2CCCC2)c1=O` + COc1c(OCCCN2CCOCC2)ccc2c3n(c(=NC(=O)c4cnc(N)nc4)nc12)CCN3, the IC50 (curve of first compound, second compound 0.00316 µM) was > 100 nM, the IC50 (curve of first compound, second compound 0.01 µM) was > 100 nM and the IC50 (curve of first compound, second compound 0.0316 µM) was 39.7 nM. The IC50 (curve of first compound, second compound 0.1 µM) was < 0.316 nM, the IC50 (curve of first compound, second compound 0.316 µM) was < 0.316 nM and the IC50 (curve of first compound, second compound 1 µM) was < 0.316 nM. It also gave a viability, T/C (second compound 0.00316 µM, first compound 0.000316 µM) of 120%, a viability, T/C (second compound 0.00316 µM, first compound 0.001 µM) of 118% and a viability, T/C (second compound 0.00316 µM, first compound 0.00316 µM) of 95.3%. It also gave a viability, T/C (second compound 0.00316 µM, first compound 0.01 µM) of 95.6%, a viability, T/C (second compound 0.00316 µM, first compound 0.0316 µM) of 80.5% and a viability, T/C (second compound 0.00316 µM, first compound 0.1 µM) of 85%. The viability, T/C (second compound 0.01 µM, first compound 0.000316 µM) was 89.3%, the viability, T/C (second compound 0.01 µM, first compound 0.001 µM) was 104% and the viability, T/C (second compound 0.01 µM, first compound 0.00316 µM) was 95.5%. For the same compound, the viability, T/C (second compound 0.01 µM, first compound 0.01 µM) was 83.4%, the viability, T/C (second compound 0.01 µM, first compound 0.0316 µM) was 84.3% and the viability, T/C (second compound 0.01 µM, first compound 0.1 µM) was 74.2%. For the same compound, the viability, T/C (second compound 0.0316 µM, first compound 0.000316 µM) was 71.3%, the viability, T/C (second compound 0.0316 µM, first compound 0.001 µM) was 64.8% and the viability, T/C (second compound 0.0316 µM, first compound 0.00316 µM) was 74.2%. The viability, T/C (second compound 0.0316 µM, first compound 0.01 µM) was 68.3%, the viability, T/C (second compound 0.0316 µM, first compound 0.0316 µM) was 51.8% and the viability, T/C (second compound 0.0316 µM, first compound 0.1 µM) was 42.7%. For the same compound, the viability, T/C (second compound 0.1 µM, first compound 0.000316 µM) was 35.3%, the viability, T/C (second compound 0.1 µM, first compound 0.001 µM) was 42.8% and the viability, T/C (second compound 0.1 µM, first compound 0.00316 µM) was 34%. The viability, T/C (second compound 0.1 µM, first compound 0.01 µM) was 32.9%, the viability, T/C (second compound 0.1 µM, first compound 0.0316 µM) was 26.6% and the viability, T/C (second compound 0.1 µM, first compound 0.1 µM) was 27.1%. For the same compound, the viability, T/C (second compound 0.316 µM, first compound 0.000316 µM) was 14.5%, the viability, T/C (second compound 0.316 µM, first compound 0.001 µM) was 17.1% and the viability, T/C (second compound 0.316 µM, first compound 0.00316 µM) was 19.7%. It also gave a viability, T/C (second compound 0.316 µM, first compound 0.01 µM) of 13.2%, a viability, T/C (second compound 0.316 µM, first compound 0.0316 µM) of 15% and a viability, T/C (second compound 0.316 µM, first compound 0.1 µM) of 13.6%. The viability, T/C (second compound 1 µM, first compound 0.000316 µM) was 5.84%, the viability, T/C (second compound 1 µM, first compound 0.001 µM) was 7.18% and the viability, T/C (second compound 1 µM, first compound 0.00316 µM) was 7.6%. For the same compound, the viability, T/C (second compound 1 µM, first compound 0.01 µM) was 5.71%, the viability, T/C (second compound 1 µM, first compound 0.0316 µM) was 7.91% and the viability, T/C (second compound 1 µM, first compound 0.1 µM) was 6.26%.
For `CC(C)n1nc(-c2ccc3oc(N)nc3c2)c2c(N)ncnc21`, the viability, T/C (compound 0.000316 µM) was 104% [middle of 4 runs], the viability, T/C (compound 0.001 µM) was 96.4% [middle of 4 runs] and the viability, T/C (compound 0.00316 µM) was 97.8% [middle of 4 runs]. For the same compound, the viability, T/C (compound 0.0316 µM) was 87.3% [middle of 4 runs], the viability, T/C (compound 0.1 µM) was 35.7% [middle of 4 runs] and the IC50 (curve of compound) was 70.6 nM [middle of 4 runs].
For `C#Cc1c(F)ccc2cc(O)cc(-c3ncc4c(N5CC6CCC(C5)N6)nc(OCC56CCCN5CC(F)C6)nc4c3F)c12` (centres undefined), the viability, T/C (compound 0.1 µM) was 99.3% [middle of 4 runs], the viability, T/C (compound 3.16 µM) was 98.4% [middle of 4 runs] and the viability, T/C (compound 10 µM) was 96.3% [middle of 4 runs]. The IC50 (curve of compound) was > 10000 nM.
With `Cn1cnc2c(F)c(Nc3ccc(Br)cc3Cl)c(C(=O)NOCCO)cc21` the viability, T/C (compound 0.00949 µM) was 98.5% [middle of 4 runs], the viability, T/C (compound 0.0949 µM) was 95.3% [middle of 4 runs] and the viability, T/C (compound 0.3 µM) was 98.9% [middle of 4 runs]. For the same compound, the viability, T/C (compound 0.949 µM) was 88% [middle of 4 runs], the viability, T/C (compound 3 µM) was 95.5% [middle of 4 runs] and the IC50 (curve of compound) was > 3000 nM.
For `CCCS(=O)(=O)Nc1ccc(F)c(C(=O)c2c[nH]c3ncc(-c4ccc(Cl)cc4)cc23)c1F`, the viability, T/C (compound 0.0316 µM) was 91% and 97.4% (2×) and 99.9%, the viability, T/C (compound 0.1 µM) was 94.3% [middle of 4 runs] and the viability, T/C (compound 0.316 µM) was 106% [middle of 4 runs]. The viability, T/C (compound 1 µM) was 107% [middle of 4 runs], the viability, T/C (compound 10 µM) was 47.2% [middle of 4 runs] and the IC50 (curve of compound) was 9.4 µM [middle of 4 runs].
